Results: patent US12459917B2, “Salt of diaminopyrimidine compounds, and solid form thereof, preparation method therefor and use thereof” (BEIJING TIDE PHARMACEUTICAL CO., LTD., priority 2019, dated 2025)
Converted amounts (≈) assume the structure as drawn.

Test: Solubility test in FaSSIF at 37° C.
Assay type: physicochemical
Details: FaSSIF (Fasted State Simulated Intestinal Fluid), thermodynamic from solid
Excerpt: Experimental Example 3: Solubility Test

solubility at 30 min (30 min): 80 µg/mL (≈ 297 µM)
solubility at 2 h (2 h): 80 µg/mL (≈ 297 µM)
solubility at 24 h (24 h): 110 µg/mL (≈ 408 µM)
Compound: C#Cc1cc(Oc2cnc(N)nc2N)c(C(C)C)cn1 [Free base, 5-((2-ethynyl-5-isopropylpyridin-4-yl)oxy)pyrimidine-2,4-diamine]
